Measurements published in patent US5672715A, “Herbicidal substituted 3-aryl-pyrazoles” (Monsanto Company, priority 1995, dated 1997).

Legend:
Type in all cases: in vivo
Morning Glory [1] = test: post-emergence herbicide test; conditions: Ipomoea, post-emergence, 0.25 lb/A; read-out: % plant inhibition
In short: (§1)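 Plants were raised from seed in topsoil pans in the greenhouse and treated post-emergence at two to three weeks of age. Candidate chemical was applied in spray solution or suspension containing about 0.4% emulsifier at 1870 L/Ha. Activity recorded as percent inhibition.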

Common Chickweed [2] = test: post-emergence herbicide test; conditions: post-emergence, 0.25 lb/A; read-out: % plant inhibition
In short: as §1

Corn [3] = test: post-emergence herbicide test; conditions: Zea mays, post-emergence, 0.25 lb/A; read-out: % plant inhibition
In short: as §1

Seedling Johnsongrass [4] = test: post-emergence herbicide test; conditions: Sorghum halepense, post-emergence, 0.25 lb/A; read-out: % plant inhibition
In short: as §1

Blackgrass [5] = test: post-emergence herbicide test; conditions: Alopecurus myosuroides, post-emergence, 0.25 lb/A; read-out: % plant inhibition
In short: as §1

Rape [6] = test: post-emergence herbicide test; conditions: post-emergence, 0.25 lb/A; read-out: % plant inhibition
In short: as §1

Soybean [7] = test: post-emergence herbicide test; conditions: Glycine max, post-emergence, 0.25 lb/A; read-out: % plant inhibition
In short: as §1

Green Foxtail [8] = test: post-emergence herbicide test; conditions: Setaria viridis, post-emergence, 0.25 lb/A; read-out: % plant inhibition
In short: as §1

Barnyardgrass [9] = test: post-emergence herbicide test; conditions: Echinochloa crus-galli, post-emergence, 0.25 lb/A; read-out: % plant inhibition
In short: as §1

Bedstraw Catchweed [10] = test: post-emergence herbicide test; conditions: Galium aparine, post-emergence, 0.25 lb/A; read-out: % plant inhibition
In short: as §1

Giant Foxtail [11] = test: post-emergence herbicide test; conditions: Setaria faberi, post-emergence, 0.25 lb/A; read-out: % plant inhibition
In short: as §1

Birdseye Speedwell [12] = test: post-emergence herbicide test; conditions: post-emergence, 0.25 lb/A; read-out: % plant inhibition
In short: as §1

Wild Oats [13] = test: post-emergence herbicide test; conditions: Avena fatua, post-emergence, 0.25 lb/A; read-out: % plant inhibition
In short: as §1

Wheat [14] = test: post-emergence herbicide test; conditions: Triticum aestivum, post-emergence, 0.25 lb/A; read-out: % plant inhibition
In short: as §1

Downy Brome [15] = test: post-emergence herbicide test; conditions: Bromus tectorum, post-emergence, 0.25 lb/A; read-out: % plant inhibition
In short: as §1

Cocklebur [16] = test: post-emergence herbicide test; conditions: Xanthium strumarium, post-emergence, 0.25 lb/A; read-out: % plant inhibition
In short: as §1

Velvetleaf [17] = test: post-emergence herbicide test; conditions: Abutilon theophrasti, post-emergence, 0.25 lb/A; read-out: % plant inhibition
In short: as §1

Morning Glory [18] = test: pre-emergence herbicide test; conditions: Ipomoea, pre-emergence, 0.25 lb/A; read-out: % plant inhibition
In short: (§2)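 Pans of compacted topsoil received seeds and then a cover layer treated with test compound from an acetone or water carrier. Plants grew under greenhouse conditions with moisture supplied from below. Observations of % inhibition followed roughly 14 days after treatment.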

Common Chickweed [19] = test: pre-emergence herbicide test; conditions: pre-emergence, 0.25 lb/A; read-out: % plant inhibition
In short: as §2

Corn [20] = test: pre-emergence herbicide test; conditions: Zea mays, pre-emergence, 0.25 lb/A; read-out: % plant inhibition
In short: as §2

Seedling Johnsongrass [21] = test: pre-emergence herbicide test; conditions: Sorghum halepense, pre-emergence, 0.25 lb/A; read-out: % plant inhibition
In short: as §2

Blackgrass [22] = test: pre-emergence herbicide test; conditions: Alopecurus myosuroides, pre-emergence, 0.25 lb/A; read-out: % plant inhibition
In short: as §2

Rape [23] = test: pre-emergence herbicide test; conditions: pre-emergence, 0.25 lb/A; read-out: % plant inhibition
In short: as §2

Soybean [24] = test: pre-emergence herbicide test; conditions: Glycine max, pre-emergence, 0.25 lb/A; read-out: % plant inhibition
In short: as §2

Green Foxtail [25] = test: pre-emergence herbicide test; conditions: Setaria viridis, pre-emergence; 0.25 lb/A; read-out: % plant inhibition
In short: as §2

Barnyardgrass [26] = test: pre-emergence herbicide test; conditions: Echinochloa crus-galli, pre-emergence, 0.25 lb/A; read-out: % plant inhibition
In short: as §2

Bedstraw Catchweed [27] = test: pre-emergence herbicide test; conditions: Galium aparine, pre-emergence, 0.25 lb/A; read-out: % plant inhibition
In short: as §2

Giant Foxtail [28] = test: pre-emergence herbicide test; conditions: Setaria faberi, pre-emergence, 0.25 lb/A; read-out: % plant inhibition
In short: as §2

Birdseye Speedwell [29] = test: pre-emergence herbicide test; conditions: pre-emergence, 0.25 lb/A; read-out: % plant inhibition
In short: as §2

Wild Oats [30] = test: pre-emergence herbicide test; conditions: Avena fatua, pre-emergence, 0.25 lb/A; read-out: % plant inhibition
In short: as §2

Wheat [31] = test: pre-emergence herbicide test; conditions: Triticum aestivum, pre-emergence, 0.25 lb/A; read-out: % plant inhibition
In short: as §2

Downy Brome [32] = test: pre-emergence herbicide test; conditions: Bromus tectorum, pre-emergence, 0.25 lb/A; read-out: % plant inhibition
In short: as §2

Cocklebur [33] = test: pre-emergence herbicide test; conditions: Xanthium strumarium, pre-emergence, 0.25 lb/A; read-out: % plant inhibition
In short: as §2

Velvetleaf [34] = test: pre-emergence herbicide test; conditions: Abutilon theophrasti, pre-emergence, 0.25 lb/A; read-out: % plant inhibition
In short: as §2

Row | Structure (SMILES) | inhibition at 280.212 g/ha (Morning Glory [1]) | inhibition at 280.212 g/ha (Common Chickweed [2]) | inhibition at 280.212 g/ha (Corn [3]) | inhibition at 280.212 g/ha (Seedling Johnsongrass [4]) | inhibition at 280.212 g/ha (Blackgrass [5]) | inhibition at 280.212 g/ha (Rape [6]) | inhibition at 280.212 g/ha (Soybean [7]) | inhibition at 280.212 g/ha (Green Foxtail [8]) | inhibition at 280.212 g/ha (Barnyardgrass [9]) | inhibition at 280.212 g/ha (Bedstraw Catchweed [10]) | inhibition at 280.212 g/ha (Giant Foxtail [11]) | inhibition at 280.212 g/ha (Birdseye Speedwell [12]) | inhibition at 280.212 g/ha (Wild Oats [13]) | inhibition at 280.212 g/ha (Wheat [14]) | inhibition at 280.212 g/ha (Downy Brome [15]) | inhibition at 280.212 g/ha (Cocklebur [16]) | inhibition at 280.212 g/ha (Velvetleaf [17]) | inhibition at 280.212 g/ha (Morning Glory [18]) | inhibition at 280.212 g/ha (Common Chickweed [19]) | inhibition at 280.212 g/ha (Corn [20]) | further results
1 | Cc1c(-c2cc(CS)c(Cl)cc2F)nn(C)c1C(F)(F)F [Compound 30] | 65% | 75% | 20% | 70% | 30% | 60% | 65% | 65% | 60% | 40% | 20% | 98% | 25% | 15% | 25% | 60% | 85% | 20% | 35% | 15% | inhibition at 280.212 g/ha (Seedling Johnsongrass [21]): 95%; inhibition at 280.212 g/ha (Blackgrass [22]): 20%; inhibition at 280.212 g/ha (Rape [23]): 5%; inhibition at 280.212 g/ha (Soybean [24]): 20%; inhibition at 280.212 g/ha (Green Foxtail [25]): 98%; inhibition at 280.212 g/ha (Barnyardgrass [26]): 70%; inhibition at 280.212 g/ha (Bedstraw Catchweed [27]): 40%; inhibition at 280.212 g/ha (Giant Foxtail [28]): 25%; inhibition at 280.212 g/ha (Birdseye Speedwell [29]): 50%; inhibition at 280.212 g/ha (Wild Oats [30]): 0%; inhibition at 280.212 g/ha (Wheat [31]): 0%; inhibition at 280.212 g/ha (Downy Brome [32]): 5%; inhibition at 280.212 g/ha (Cocklebur [33]): 25%; inhibition at 280.212 g/ha (Velvetleaf [34]): 90%
2 | CCCCCOC(=O)c1cc(-c2nn(C)c(C(F)(F)F)c2C)c(F)cc1Cl [Compound 48] | 75% | 65% | 7% | 85% | 70% | 60% | 70% | 98% | 60% | 80% | 99% | 100% | 75% | 16% | 65% | 90% | 100% | 99% | 95% | 35% | inhibition at 280.212 g/ha (Seedling Johnsongrass [21]): 98%; inhibition at 280.212 g/ha (Blackgrass [22]): 60%; inhibition at 280.212 g/ha (Rape [23]): 5%; inhibition at 280.212 g/ha (Soybean [24]): 0%; inhibition at 280.212 g/ha (Green Foxtail [25]): 100%; inhibition at 280.212 g/ha (Barnyardgrass [26]): 100%; inhibition at 280.212 g/ha (Bedstraw Catchweed [27]): 45%; inhibition at 280.212 g/ha (Giant Foxtail [28]): 99%; inhibition at 280.212 g/ha (Birdseye Speedwell [29]): 100%; inhibition at 280.212 g/ha (Wild Oats [30]): 45%; inhibition at 280.212 g/ha (Wheat [31]): 0%; inhibition at 280.212 g/ha (Downy Brome [32]): 90%; inhibition at 280.212 g/ha (Cocklebur [33]): 45%; inhibition at 280.212 g/ha (Velvetleaf [34]): 95%
